{
  "source": "paper PMC4512978",
  "about": "“Synthesis and evaluation in rats of homologous series of [^18F]-labeled dopamine D2/3 receptor agonists based on the 2-aminomethylchroman scaffold as potential PET tracers” (EJNMMI Research, 2015)",
  "key": {"D2/3R": {"test_system": "D2/3R", "assay": "In vitro autoradiography of rat brain slices", "assay_type": "binding, Sprague-Dawley rats", "protocol": "In vitro autoradiography assay was performed as previously described. Frozen brains of young (10–12 weeks of age; 300–350 g body weight) male Sprague-Dawley rats (Harlan, Netherlands) were cut at −12 °C into sagittal slices 20 μm thick using a Leica microtome, and the slices were thaw-mounted on Superfrost (70 × 22 mm, Fischer) adhesive slides. Only slices containing both striatal and cerebellar regions were used. The slides with slices mounted them were allowed to dry, then put into storage boxes with silica gel bags and stored at −80 °C.\nOn the day of the experiment (within 1 week from the preparation of the slices), the slides were taken out of storage and allowed to come to room temperature for 5–10 min. Then, 1–1.2 mL of incubation buffer (50 mM Tris-HCl, 5 mM KCl, 2 mM CaCl2, 2 mM MgCl2, 120 mM NaCl, pH 7.4 25 °C) was applied per slide, and the slides were pre-incubated for 15 min at room temperature. The buffer was then removed, and the slides were placed into staining jars containing radioligand solution (concentration range of 0.1–10 nM) in the incubation buffer with or without 10 μM raclopride (D2/3 antagonist) or 100 μM guanosine-5'-triphosphate sodium salt (GTP, stimulator of G-protein uncoupling from the receptors). After 35 min of incubation at 37 °C, slides were washed once with ice-cold incubation buffer (3.5 min) and dipped for 30 s into ice-cold distilled water to remove buffer salts.\nAfter drying the slides in a stream of room-temperature air, they were exposed on phosphor storage screens for 6–10 h. The storage screens were read by Cyclone Storage Phosphor System (Packard Instruments Co.). Quantification of plate readings was done with OptiQuant software (version 3.00, Packard Instruments Co.).\n(§1) Degree of D2/3R-specific binding of the tracers was characterized by BPND (as given above) or the specific binding ratio (SBR) given as target region activity/cerebellar activity - 1. Both were calculated under control conditions and in response to the raclopride challenge."}, "striatal D2/3R": {"test_system": "striatal D2/3R", "assay": "Ex vivo autoradiography study in rats", "protocol": "To further assess the specific binding of [^18F]FEt-AMC13 to the striatal D2/3R, two groups of rats were anesthetized, pre-treated with saline (n = 3) or raclopride (n = 3), and 26 ± 3 min later injected with a bolus of [^18F]FEt-AMC13 (4.2 ± 1.4 MBq, 0.14 ± 0.04 nmol/kg) into the penile vein. Rats were sacrificed by heart extirpation 35 min later. Brains were quickly extracted and separated into two halves along the sagittal symmetry plane or along the coronal plane spanning the thalamus.\nOne half of the brain (rostral or randomly taken left/right) was quickly frozen over liquid nitrogen and prepared for cutting on the microtome in the same manner as brains used for in vitro autoradiography. Slices 40 μm thick were cut, mounted on Superfrost glass slides, permitted to dry, and then directly applied to the phosphor storage screens.\nas §1"}},
  "note": "Values joined by “and” are separate entries in the source; they are usually repeats but may differ in a detail not shown here. Identical values can stand only once.",
  "data": [
    {"smiles": "Oc1ccc2c(c1)O[C@@H](CNCc1ccc(OCC[18F])cc1)CC2", "note": "[[^18F]FEt-AMC13]", "values": [
      {"measurement": "decrease of striatal SBR (D2/3R-specific binding) by raclopride in vitro", "setting": "D2/3R; 10 μM raclopride, compared to control conditions", "result": 81, "unit": "%"},
      {"measurement": "mean striatum-to-cerebellum uptake ratio in vitro", "setting": "D2/3R; rat brain slices", "result": 4.4},
      {"measurement": "Striatal SBR % change relative to control condition, Raclopride", "setting": "D2/3R; with 10 μM raclopride", "result": "−81", "unit": "%"},
      {"measurement": "Striatal SBR, Raclopride", "setting": "D2/3R; with 10 μM raclopride", "result": "0.63 ± 0.53"},
      {"measurement": "Striatal SBR % change relative to control condition, GTP", "setting": "D2/3R; with 100 μM GTP", "result": "−81", "unit": "%"},
      {"measurement": "Striatal SBR, GTP", "setting": "D2/3R; with 100 μM GTP", "result": "0.66 ± 0.52"},
      {"measurement": "Ex vivo autoradiography-based SBR", "setting": "striatal D2/3R; 1 mg/kg raclopride", "result": "1.06 ± 0.17"},
      {"measurement": "decrease of ex vivo autoradiography-based SBR", "setting": "striatal D2/3R; 1 mg/kg raclopride, p < 0.01", "result": 39, "unit": "%"},
      {"measurement": "Striatum-to-cerebellum uptake ratio (ex vivo autoradiography)", "setting": "striatal D2/3R; 35 min post-injection, saline pre-treated rats", "result": "2.8 and 2.81 ± 0.29"},
      {"measurement": "Ex vivo autoradiography-based SBR", "setting": "striatal D2/3R; saline pre-treated", "result": "1.81 ± 0.29"}
    ]}
  ]
}
